{"source": "a melting point compilation (Tetko et al.; mined from patent text by program, amines drawn as free bases though some values may be those of a salt)"}
{"units": {"melting point": "°C"}}
{"smiles": "COc1cc(C=O)ccc1OCCN1c2ccccc2Sc2ccccc21", "melting point": 130}
{"smiles": "CN1CCC23CCCCC2C1Cc1ccc(Oc2nc(-c4ccccc4)nc4ccccc24)cc13", "note": "(single isomer, unassigned; (+))", "melting point": "138 to 139"}
{"smiles": "CCOC(=O)Cc1nc(-c2ccc(Cl)cc2)oc1OCC", "melting point": "144 to 146"}
{"smiles": "COC(=O)CCC(=O)c1ccc2c(c1)CNC(=O)N2C", "melting point": "165 to 175"}
{"smiles": "CCc1cc(-c2cccc(N)n2)c(OC)cc1OCCN(C)C", "melting point": 109}
{"smiles": "COc1cc(OC)c2c(=O)[nH]c(-c3cc(C)c(OCCN4CCOCC4)c(C)c3)cc2n1", "melting point": "212 to 213"}
{"smiles": "CN(C)c1ccc(C2(c3ccc(N(C)C)cc3Cl)OC(=O)c3cc(N(C)C)ccc32)cc1", "note": "(stereo not drawn)", "melting point": "233 to 234"}
{"smiles": "COc1ncc(CN2C(=O)C3(COc4cc5c(cc43)OCO5)c3ccccc32)s1", "note": "(stereo not drawn)", "melting point": "164 to 166"}
{"smiles": "O=C(Nc1ccc(F)cc1)N1CC2C(C1)C2Nc1ncc2cc(-c3ccccc3Cl)c(=O)n(-c3ccc(F)cc3)c2n1", "note": "(stereo not drawn)", "melting point": "300 to 302"}
{"smiles": "CCCCCCCCCCCCC(O)CNCCCCCCNCC(O)CCCCCCCCCCCC", "note": "(stereo not drawn)", "melting point": "118 to 121"}
{"smiles": "c1ccc2c(C3CNCCNCCNCCNCCN3)cccc2c1", "note": "(stereo not drawn)", "melting point": "87 to 88"}
{"smiles": "O=S1(=O)O[C@H](COCc2ccccc2)CC[C@@H](COCc2ccccc2)O1", "melting point": "57 to 59"}
{"smiles": "COC(=O)c1ccc(-n2cc3ccccc3n2)cc1", "melting point": "80 to 81"}
{"smiles": "C[Si](C)(C)N1Cc2ccccc2P1(=O)c1ccccc1", "note": "(stereo not drawn)", "melting point": "90 to 94"}
{"smiles": "Nc1ncc(CN2CCN(c3ccc(Cl)cc3)CC2)c(N)n1", "melting point": "296 to 298"}
{"smiles": "Cn1c(=O)nc(-c2ccccc2)c2c3c(sc21)CCCC3", "melting point": "215 to 216"}
{"smiles": "CCC(=Cc1ccccc1)C(=O)c1ccc(OC)c(Cl)c1Cl", "melting point": "127 to 130"}
{"smiles": "OC[C@@H]1O[C@H](n2c(NC3CC3)nc3c(Cl)c(Cl)c(Cl)cc32)[C@@H](O)[C@H]1O", "melting point": "208 to 209"}
{"smiles": "CCOC(=O)Nc1ncc(-c2nc3ccccc3c(=O)n2-c2cccc(OC)c2)s1", "melting point": "235 to 236"}
{"smiles": "CCn1c(C)nc2cc(C(F)(F)F)c(Cl)c(N)c21", "melting point": "176 to 178"}
{"smiles": "CC(=O)c1ccc2c(c1)[C@@H](NC(=O)Nc1ccccc1)[C@H](O)C(C)(C)O2", "note": "(relative stereo)", "melting point": "210 to 211"}
{"smiles": "CCn1c(Cl)c(C=O)c(=O)n(CC)c1=O", "melting point": "88 to 89"}
{"smiles": "Cc1nc(N)oc1-c1cccc2ccccc12", "melting point": "187 to 189"}
{"smiles": "O=c1c2[nH]c(C(C3CC3)C3CC3)nc2n(C2CC2)c(=O)n1C1CC1", "melting point": "197 to 198"}
{"smiles": "Cc1c(C(=O)Nc2ccc(N3CCC(N4CCC(=O)CC4)CC3)c(C#N)c2)cnn1-c1ccc(Cl)cc1", "melting point": 213}
{"smiles": "CC(=O)Nc1cc2c(s1)CCCN(CCCCN1CCN(c3ncccn3)CC1)C2=O", "melting point": "158 to 161"}
{"smiles": "CC(C)(C)OC(=O)Nc1ccsc1C(=O)O", "melting point": "168 to 169"}
{"smiles": "O=C(Nc1ccc(N2CCN(C(=O)Nc3ccc(C(=O)O)cc3Cl)CC2)cc1)Nc1ccccc1F", "melting point": "250 to 253"}
{"smiles": "CCC1(CCSC(C)=O)C(=O)N2CCCC(C(=O)O)N2C1=O", "note": "(stereo not drawn)", "melting point": "110 to 111"}
{"smiles": "CCOC(=O)c1c(C)cc(OCc2cccc(OCc3ccc4ccccc4n3)c2)cc1O", "melting point": "127 to 128"}
{"smiles": "CC(=O)OC1CC(C)(C)N(OC(=NC2CCCCC2)N(C(=O)c2ccccc2)C2CCCCC2)C(C)(C)C1", "melting point": "147 to 152"}
{"smiles": "CC1(C)C(=O)N(c2ccc(C#N)c(C(F)(F)F)c2)C(=O)N1CCCCO[N+](=O)[O-]", "melting point": "74 to 75"}
{"smiles": "CC[Si](CC)(c1ccc(N(c2ccccc2)c2ccccc2)cc1)c1ccc(N(c2ccccc2)c2ccccc2)cc1", "melting point": "154 to 155"}
{"smiles": "COc1cc(C(=O)C(=O)c2ccccc2)c(OC)cc1C(=O)C(=O)c1ccccc1", "melting point": "209 to 211"}
{"smiles": "NC(=O)[C@@H]1[C@H](Nc2ccnc3[nH]c(-c4ccc(N5CCOCC5)cc4)nc23)[C@H]2C=C[C@@H]1C2", "melting point": "240 to 244"}
{"smiles": "O=C(Cn1ccnc1)c1ccccc1", "melting point": "121 to 122"}
{"smiles": "NCC(C(=O)O)c1c[nH]c2ccc(F)cc12", "note": "(stereo not drawn)", "melting point": "244 to 245"}
{"smiles": "CON=C(C(=O)O)c1nsc(NC(=O)OCc2ccccc2)n1", "melting point": "138 to 142"}
{"smiles": "N#CC(C(=O)Nc1ccc(F)cc1F)C(=O)c1ccc[nH]1", "note": "(stereo not drawn)", "melting point": "169 to 171"}
{"smiles": "CC[C@@H](c1ccccc1)N(Cc1ccc(C(=O)O)c(F)c1)S(=O)(=O)c1ccc(Cl)cc1", "melting point": "95 to 97"}
{"smiles": "CC#CCOc1cc(Cc2cccc(F)c2)ncn1", "melting point": 51.5}
{"smiles": "COC(=O)Nc1cccc(OCC(O)CN(Cc2ccccc2)C(C)(C)C)c1O", "note": "(stereo not drawn)", "melting point": "130 to 133"}
{"smiles": "Cc1c(C(=O)Nc2ccc(OCCN3CCOCC3)c(C#N)c2)cnn1-c1ccc(Cl)cc1", "melting point": "187 to 189"}
{"smiles": "COC(=O)c1cc(S(C)(=O)=O)c(Nc2ccc(S(F)(F)(F)(F)F)cc2)cc1C", "melting point": "106 to 109"}
{"smiles": "COc1cc(OC)c2c(=O)cc(-c3cc[nH]n3)oc2c1", "melting point": "197 to 198"}
{"smiles": "O=C=Nc1cc(OCC(F)(F)F)ccc1OCC(F)(F)F", "melting point": "50 to 52"}
{"smiles": "CN(C)c1ccc(C(=N)NC=Cc2ccc([N+](=O)[O-])cc2)cc1", "melting point": "191 to 193"}
{"smiles": "COc1ccc(Cc2nc3cc(Cl)cc(CC(N)=O)c3o2)cc1OC1CCCC1", "melting point": "162 to 164"}
